In ChEMBL document CHEMBL1127956, “Tetrahydroisoquinoline as a phenylalanine replacement in renin inhibitors” (Bioorg Med Chem Lett, 1994) one finds inhibition and IC50 data, which are given here for 11 molecules.

The first experiment concerns the target T1, Renin (Homo sapiens) (UniProt P00797).
T1 sequence (whole entry): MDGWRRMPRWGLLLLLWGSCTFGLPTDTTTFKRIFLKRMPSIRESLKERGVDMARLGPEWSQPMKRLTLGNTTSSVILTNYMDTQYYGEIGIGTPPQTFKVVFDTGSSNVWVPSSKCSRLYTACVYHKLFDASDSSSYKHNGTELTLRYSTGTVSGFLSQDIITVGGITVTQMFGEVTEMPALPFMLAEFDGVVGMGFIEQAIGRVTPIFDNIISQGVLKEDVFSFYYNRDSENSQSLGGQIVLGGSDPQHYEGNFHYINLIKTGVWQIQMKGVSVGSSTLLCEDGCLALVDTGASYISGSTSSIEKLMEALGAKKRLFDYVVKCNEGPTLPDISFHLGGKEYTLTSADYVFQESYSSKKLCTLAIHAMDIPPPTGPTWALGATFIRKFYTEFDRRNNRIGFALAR
The experiment in a line: In vitro inhibitory activity against monkey plasma renin was determined at 10e-6 M. The note with it: Cercopithecidae, target entry is the homologue from another species. Format: cell-free.
Consider `CC(C)C[C@H](O)[C@H](O)[C@H](CC1CCCCC1)NC(=O)CCC(O)[C@@H]1Cc2ccccc2CN1C(=O)OC(C)(C)C` (stereo partly specified), for which the inhibition was 0%. As to `CC(C)C[C@H](O)[C@H](O)[C@H](CC1CCCCC1)NC(=O)CCC(=O)[C@@H]1Cc2ccccc2CN1C(=O)OC(C)(C)C`, the inhibition was 9.8%. The same measure, in the same setting: the same measure for `CC(C)C[C@H](O)[C@H](O)[C@H](CC1CCCCC1)NC(=O)CNC(=O)[C@@H]1Cc2ccccc2CN1C(=O)OC(C)(C)C`: 11.9%.

The target in the next experiment is T2, Renin (Homo sapiens, UniProt P00797).
T2 sequence (P00797 whole entry): T1 sequence (whole entry)
Put plainly: In vitro inhibitory activity against monkey plasma renin. The note with it: target entry is the homologue from another species. Format: cell-free, Cercopithecidae.
`C=CC[C@H](NC(=O)[C@@H]1Cc2ccccc2CN1S(=O)(=O)N1CCOCC1)C(=O)N[C@@H](CC1CCCCC1)[C@@H](O)[C@@H](O)CC(C)C` came in with an IC50 of 2.89 nM. Still for that read-out and setting: the same measure for `C=CC[C@H](NC(=O)[C@H]1Cc2ccccc2CN1)C(=O)N[C@@H](CC1CCCCC1)[C@@H](O)[C@@H](O)CC(C)C`: 373 nM; for `C=CC[C@H](NC(=O)[C@H](Cc1ccccc1)NC(=O)OC(C)(C)C)C(=O)N[C@@H](CC1CCCCC1)[C@@H](O)[C@@H](O)CC(C)C`: 0.42 nM; for `C=CC[C@H](NC(=O)[C@H]1Cc2ccccc2CN1C(=O)OC(C)(C)C)C(=O)N[C@@H](CC1CCCCC1)[C@@H](O)[C@@H](O)CC(C)C`: 325 nM. Still for that read-out and setting: the same measure for `CC(C)C[C@H](O)[C@H](O)[C@H](CC1CCCCC1)NC(=O)CNC(=O)[C@H](Cc1ccccc1)NS(=O)(=O)N1CCOCC1`: 3.6 nM; for `C=CC[C@H](NC(=O)[C@@H]1Cc2ccccc2CN1C(=O)OC(C)(C)C)C(=O)N[C@@H](CC1CCCCC1)[C@@H](O)[C@@H](O)CC(C)C`: 146 nM; for `C=CC[C@H](NC(=O)[C@@H]1Cc2ccccc2CN1)C(=O)N[C@@H](CC1CCCCC1)[C@@H](O)[C@@H](O)CC(C)C`: 11.5 nM. Molecule `CC(C)C[C@H](O)[C@H](O)[C@H](CC1CCCCC1)NC(=O)CNC(=O)[C@@H]1Cc2ccccc2CN1S(=O)(=O)N1CCOCC1` returned an IC50 of 101 nM.

One may read the inhibition as how much of the control response was suppressed. The IC50 is the midpoint of a concentration-inhibition curve.
